Data set [1] has as its system MCF7. Description: Antiproliferative activity against human MCF7 cells assessed as cell growth inhibition incubated for 4 days by crystal violet staining based assay. Conditions: time 4.0 day. It counts as functional.
In data set [2] the test system is T47D. The data set can be described thus: PROTAC activity at CRBN/ ERalpha Y537S mutant in human T47D cells assessed as reduction in ERalpha protein level at 10 to 100 nM measured at 7 hrs by Western blot analysis. It counts as cell-based. Conditions: dose 10-100 nM. Background: Immunoblotting shows a protein as a band on a membrane.
The target of data set [3] is Protein cereblon (Homo sapiens, UniProt Q96SW2). The data set can be described thus: Binding affinity to wild type GST-tagged human CRBN by HTRF assay.
Data set [4] deals with T1, Protein cereblon/Estrogen receptor (Homo sapiens, UniProt P03372+Q96SW2). Description: PROTAC activity at CRBN/wild type ERalpha in human T47D cells assessed as reduction in ERalpha protein level at 10 to 100 nM measured at 7 hrs by Western blot analysis. Type of data set: cell-based. Conditions: dose 10-100 nM.
Target sequence in this assay (P03372 whole entry, looked up): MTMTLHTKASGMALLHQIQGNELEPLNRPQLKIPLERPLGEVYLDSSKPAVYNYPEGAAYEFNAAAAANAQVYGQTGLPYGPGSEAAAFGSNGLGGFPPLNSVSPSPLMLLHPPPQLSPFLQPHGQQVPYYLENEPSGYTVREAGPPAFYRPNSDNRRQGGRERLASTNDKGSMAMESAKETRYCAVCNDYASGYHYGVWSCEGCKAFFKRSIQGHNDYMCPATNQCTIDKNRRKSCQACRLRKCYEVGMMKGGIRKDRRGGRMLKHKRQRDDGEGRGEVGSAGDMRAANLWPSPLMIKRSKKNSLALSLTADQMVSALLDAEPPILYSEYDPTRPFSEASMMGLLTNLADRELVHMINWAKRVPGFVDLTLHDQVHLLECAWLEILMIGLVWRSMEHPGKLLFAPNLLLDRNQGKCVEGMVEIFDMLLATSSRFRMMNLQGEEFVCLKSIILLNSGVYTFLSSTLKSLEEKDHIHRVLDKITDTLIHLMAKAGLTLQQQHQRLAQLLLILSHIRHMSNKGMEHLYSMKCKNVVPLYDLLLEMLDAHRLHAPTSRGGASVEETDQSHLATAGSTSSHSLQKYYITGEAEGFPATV
Target sequence in this assay (Q96SW2 whole entry, looked up): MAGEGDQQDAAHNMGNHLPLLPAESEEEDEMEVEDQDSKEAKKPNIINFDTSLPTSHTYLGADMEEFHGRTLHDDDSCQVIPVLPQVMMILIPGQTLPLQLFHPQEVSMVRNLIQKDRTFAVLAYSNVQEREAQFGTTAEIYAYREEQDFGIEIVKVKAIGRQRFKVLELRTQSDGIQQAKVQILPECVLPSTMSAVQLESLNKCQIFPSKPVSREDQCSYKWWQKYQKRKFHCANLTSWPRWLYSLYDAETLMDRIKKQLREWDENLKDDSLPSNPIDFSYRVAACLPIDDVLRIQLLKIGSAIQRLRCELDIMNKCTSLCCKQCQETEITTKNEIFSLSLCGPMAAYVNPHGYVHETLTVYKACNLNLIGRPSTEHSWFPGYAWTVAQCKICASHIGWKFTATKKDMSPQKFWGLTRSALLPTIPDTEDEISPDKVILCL
Data set [5] deals with T47D. Description: PROTAC activity at CRBN/ ERalpha D538G mutant in human T47D cells assessed as reduction in ERalpha protein level at 10 to 100 nM measured at 7 hrs by Western blot analysis. It counts as cell-based. Conditions: dose 10-100 nM.
The nature of data set [6]: Stability in mouse plasma assessed as half life. It counts as ADME, cell-free.
Data set [7] can be described thus: Stability in rat plasma assessed as half life. Type of data set: ADME, cell-free.
Data set [8] is described as follows: Stability in human plasma assessed as half life. It counts as ADME, cell-free.
The nature of data set [9]: Metabolic stability rat liver microsome assessed as half life. Type of data set: ADME. Conditions: microsomes. On the technique in general: Liver microsomes are vesicles of endoplasmic reticulum, rich in cytochrome P450 enzymes.
Data set [10] in a line: Metabolic stability mouse liver microsome assessed as half life. It counts as ADME. Particulars: microsomes.
Data set [11] in a line: Drug concentration in female Sprague-Dawley rat plasma at 3 mg/kg, po measured at 1 hr by LC-MS analysis. Type of data set: ADME, organism-based.
In data set [12] the target is T1, Protein cereblon/Estrogen receptor. The data set can be described thus: PROTAC activity at CRBN/ERalpha in human MCF7 cells assessed as reduction in ERalpha protein level measured after 12 hrs by Western blot analysis relative to control. It counts as cell-based.
Target sequence in this assay (P03372 whole entry, looked up): as the sequence (P03372 whole entry, looked up) above
Target sequence in this assay (Q96SW2 whole entry, looked up): as the sequence (Q96SW2 whole entry, looked up) above
The nature of data set [13]: Drug concentration in female Sprague-Dawley rat plasma at 3 mg/kg, po measured at 3 hrs by LC-MS analysis. It counts as ADME, organism-based.
Data set [14] in a line: Metabolic stability human liver microsome assessed as half life. Type of data set: ADME. Conditions: microsomes.
The nature of data set [15]: Drug concentration in female Sprague-Dawley rat plasma at 3 mg/kg, po measured at 6 hrs by LC-MS analysis. It counts as ADME, organism-based.
Data set [16] has as its target T1, Protein cereblon/Estrogen receptor. Description: PROTAC activity at CRBN/ERalpha in human MCF7 cells assessed as reduction in ERalpha protein level measured after 12 hrs by Western blot analysis. It counts as cell-based.
Target sequence in this assay (P03372 whole entry): as the sequence (P03372 whole entry, looked up) above
Target sequence in this assay (Q96SW2 whole entry): as the sequence (Q96SW2 whole entry, looked up) above
Data set [17] can be described thus: Drug concentration in female Sprague-Dawley rat plasma at 3 mg/kg, po measured at 24 hrs by LC-MS analysis. It counts as ADME, organism-based.
For data set [18], the target named is T1, Protein cereblon/Estrogen receptor. Description: PROTAC activity at CRBN/ERalpha in human MCF7 cells assessed as effect on GSPT1 level at 100 nM measured for 5 hrs by Western blot analysis. It counts as cell-based.
Target sequence in this assay (P03372 whole entry, looked up): as the sequence (P03372 whole entry, looked up) above
Target sequence in this assay (Q96SW2 whole entry, looked up): as the sequence (Q96SW2 whole entry, looked up) above

Molecules are shown by their SMILES. Activity calls are given as the source filed them. The calls are words filed in the database; no cut-off is given here.

Sequence of Protein cereblon (Q96SW2 whole entry): as the sequence (Q96SW2 whole entry, looked up) above

As for `CN1C(=O)CC[C@H](N2Cc3c(ccc4c3OCC43CCN(C[C@@H]4CCC5(CCN(c6ccc([C@@H]7c8ccc(O)cc8CC[C@@H]7c7ccccc7)cc6)CC5)OC4)CC3)C2=O)C1=O`, the outcome in data set [1] was Active. Besides, the result in [2], in data set [3], in data set [4] and in data set [5] was inactive.

On to `O=C1CC[C@H](N2Cc3c(ccc4c3OCC43CCNCC3)C2=O)C(=O)N1`, for which, in data set [3], the IC50 was determined as 230 nM. The t1/2 in [6], in [7], in data set [8], in data set [9] and in data set [10] was more than 1 h in each case.

As for `O=C1CC[C@H](N2Cc3c(ccc4c3OCC43CCN(CC(=O)N4CC5(CCN(c6ccc([C@@H]7c8ccc(O)cc8CC[C@@H]7c7ccccc7)cc6)CC5)C4)CC3)C2=O)C(=O)N1`, the concentration at 1 h in data set [11] came out at 9 ng/mL. Besides, the maximal response (Emax) in data set [12] worked out at 102%. The compound also yielded a concentration at 3 h in data set [13] of less than 5 ng/mL. Also, the t1/2 in data set [9] is 0.817 h; in data set [14], more than 1 h; in data set [10], 0.583 h. The same compound returned a concentration at 6 h in data set [15] of less than 5 ng/mL. In data set [16], the DC50 amounted to 0.0341 nM. For the same compound, the concentration at 24 h in data set [17] was less than 5 ng/mL.

Take `O=C1CCC(N2Cc3c(CCCCCNC(=O)[C@@H]4NC5(CCCCC5)[C@@]5(C(=O)Nc6cc(Cl)ccc65)[C@H]4c4cccc(Cl)c4F)cccc3C2=O)C(=O)N1` (stereo partly specified): the result in data set [18] was Active.

The term IC50 denotes the midpoint of a concentration-inhibition curve. A high value points to weaker potency. A word on the Emax: it is the greatest response seen or fitted, relative to the assay's reference.

Values taken from ChEMBL document CHEMBL6083286, “Discovery of ERD-12310A as an Exceptionally Potent and Orally Efficacious PROTAC Degrader of Estrogen Receptor α (ERα)” (J Med Chem, 2024).
